Reference: US20170219562A1, “EPIGENETIC COMPOUND SCREENING PLATFORM” (Legacy Emanuel Hospital & Health Center, priority 2016, published 2017)

Tests used:
ADK-L cells = experiment: 5-methylcytosine (5-mC) ELISA of genomic DNA from treated ADK-L cells; type: cell-based; settings: compound at its IC50, genomic DNA isolated 24 hours after treatment, 100 ng DNA, n=8-9
Protocol: The IC50 for each ADK inhibitor was selected as the treatment dose. Total genomic DNA was isolated 24 hours after treatment and 100 ng of purified DNA was run on a 5-methylcytosine (5-mC) ELISA (Zymo Research Corp.) to quantify 5-methylcytosine. […] Data are represented as the mean±SEM (n=8-9). Statistical analysis is a One-way ANOVA (F(4,37)=2.95, p=0.033) followed by uncorrected Fisher's LSD post hoc test.
The IC50 of CBZ was selected as the treatment dose. Total genomic DNA was isolated 24 hours after treatment, and 100 ng of purified DNA was run on a 5-methylcytosine (5-mC) ELISA (Zymo Research Corp) to determine the amount of 5-methylcytosine. […] Data are represented as the mean±SEM (n=8-9). Statistical analysis is a One-way ANOVA for Panel A (F(2,23)=5.67, p=0.0099) followed by uncorrected Fisher's LSD post hoc test and Kruskal-Wallis test for Panel B (Kruskal-Wallis statistic=1.11, p=0.57).

ADK-S cells = experiment: 5-methylcytosine (5-mC) ELISA of genomic DNA from treated ADK-S cells; type: cell-based; settings: for DNA methylation levels in ADK-S cells compared to vehicle-treated ADK-S cells: compound at its IC50, 24 hours after treatment, n=4-9
Protocol: 100 ng of purified genomic DNA was run on a 5-methylcytosine (5-mC) ELISA (Zymo Research Corp.) to quantify 5-methylcytosine.
FIG. 8 is a pair of bar graphs plotting the amount of 5-methylcytosine detected in genomic DNA isolated from the ADK-null cell line (Panel A) and the ADK-S cell line (Panel B) of FIG. 3, in the absence or presence of various ADK inhibitors, with each amount normalized with respect to the amount detected for vehicle-treated ADK-null cells. ADK-null and ADK-S cells identify off target effects of ADK inhibitors on DNA methylation levels. […] The IC50 for each ADK inhibitor was selected as the treatment dose. Total genomic DNA was isolated 24 hours after treatment, and 100 ng of purified DNA was run on a 5-methylcytosine (5-mC) ELISA (Zymo Research Corp) to determine the amount of 5-methylcytosine. […] Data are represented as the mean±SEM (n=4-9). Statistical analysis is a One-way ANOVA followed by uncorrected Fisher's LSD post hoc test.
FIG. 9 is a pair of bar graphs plotting the amount of 5-methylcytosine detected in genomic DNA isolated from the ADK-L cell line (Panel A) and the ADK-S cell line (Panel B) of FIG. 3, in the absence or presence of carbamazepine, with vehicle-treated ADK-null cells as a control. […] The IC50 of CBZ was selected as the treatment dose. Total genomic DNA was isolated 24 hours after treatment, and 100 ng of purified DNA was run on a 5-methylcytosine (5-mC) ELISA (Zymo Research Corp) to determine the amount of 5-methylcytosine. […] Data are represented as the mean±SEM (n=8-9). Statistical analysis is a One-way ANOVA for Panel A (F(2,23)=5.67, p=0.0099) followed by uncorrected Fisher's LSD post hoc test and Kruskal-Wallis test for Panel B (Kruskal-Wallis statistic=1.11, p=0.57).

ADK = ADK (Homo sapiens, UniProt P55263); settings: cited from earlier work; for IC50: used as treatment dose, read-out: IC50 of ADK inhibitor
Chain of ADK (P55263 whole entry, species assumed): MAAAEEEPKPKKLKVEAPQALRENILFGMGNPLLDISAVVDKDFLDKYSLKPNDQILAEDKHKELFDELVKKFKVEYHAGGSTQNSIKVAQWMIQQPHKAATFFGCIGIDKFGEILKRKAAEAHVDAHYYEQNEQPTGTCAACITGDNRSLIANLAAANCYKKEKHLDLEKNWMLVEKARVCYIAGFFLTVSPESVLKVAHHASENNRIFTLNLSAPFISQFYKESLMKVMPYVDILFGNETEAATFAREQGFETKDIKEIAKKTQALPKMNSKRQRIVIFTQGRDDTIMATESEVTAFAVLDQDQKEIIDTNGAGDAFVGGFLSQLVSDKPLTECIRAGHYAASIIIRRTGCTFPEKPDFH

| SMILES | DNA methylation (5-methylcytosine) in ADK-L cells versus vehicle alone (ADK-L cells) | DNA methylation levels in ADK-S cells compared to vehicle-treated ADK-S cells (ADK-S cells) | IC50 (ADK) | DNA methylation levels in CBZ-treated ADK-S cells compared to ADK-null cells (ADK-S cells; CBZ 24.5 nM, 24 hours after treatment, n=8-9, Kruskal-Wallis p=0.57) | Interaction with ADK (ADK) |
| --- | --- | --- | --- | --- | --- |
| Nc1ncnc2c1c(I)cn2[C@@H]1O[C@H](CO)[C@@H](O)[C@H]1O [5-ITU, 5-iodotubercidin] | significantly decreases DNA methylation | significantly increased | – | – | – |
| Nc1ncnc2nc(-c3ccc(N4CCOCC4)nc3)cc(-c3cccc(Br)c3)c12 [ABT-702] | Neither ABT-702 nor A-134974 alters DNA methylation | – | 1.7 nM | – | – |
| NC(=O)N1c2ccccc2C=Cc2ccccc21 [CBZ, Carbamazepine] | does not decrease DNA methylation | – | – | not significantly different | does not interact with ADK |
| Nc1ncnc2c1c(I)cn2[C@@H]1C[C@H](N)[C@@H](O)[C@H]1O [A-134974] | Neither ABT-702 nor A-134974 alters DNA methylation | significantly increased | 0.06 nM | – | – |
